Data: paper PMC11450061 (Clinical Pharmacokinetics, 2024)
Read-outs that look alike come from different tables or passages of the source.

Columns and labels:
[1] = asciminib 40 mg b.i.d. vs bosutinib 500 mg q.d.; cited from earlier work
[2] = system: BCR::ABL1^IS in patients with CML-CP treated with two or more prior TKIs; details: asciminib 40 mg b.i.d. vs bosutinib 500 mg q.d.; cited from earlier work
[3] = cited from earlier work
[4] = Exposure-response safety; format: in vivo, human; details: for predicted probability of AST increase grade ≥ 2 event within a cycle: ASCEMBL study
[5] = cited from earlier work; remark: listed apart in the source
[6] = TEAEs leading to dose reduction/interruption, time-dependent Cox regression; format: in vivo, human; details: 152 of 351 patients; pooled dose-finding and ASCEMBL
[7] = Population pharmacokinetics; design: species or system human
[8] = Concentration-QTcF analysis; format: in vivo, human
[9] = system: BCR::ABL1^IS levels in patients with CML-CP without the T315I mutation; assay: Exposure-response efficacy; details: Cmin model

Row | Structure (SMILES) | AEs leading to treatment discontinuation [1] | grade ≥ 3 adverse events [1] | proportion of patients achieving MMR (BCR::ABL1^IS ≤ 0.1%) at 96 weeks [2] | decrease in exposure compared with the fasted state ([3]; high-fat meal) | decrease in exposure compared with the fasted state ([3]; low-fat meal) | predicted probability of AST increase grade ≥ 2 event within a cycle ([4]; 5-fold increase in geometric mean Cmax of 40 mg b.i.d.) | predicted probability of AST increase grade ≥ 2 event within a cycle ([4]; geometric mean Cmax of 40 mg b.i.d.) | relationship between asciminib exposure and the majority of the laboratory events analyzed ([4]; repeated measures logistic regression) | increase in Cmax of asciminib when taken in combination with imatinib [5] | patients with TEAEs leading to dose reduction or dose interruption [6] | Cmin lower for 80 mg q.d. compared with 40 mg b.i.d. [7] | increase in Cmax with 80 mg q.d. compared with 40 mg b.i.d. ([7]; based on PopPK) | estimated mean QTcF change from baseline ([8]; at Cmax of 40 mg b.i.d.) | estimated mean QTcF change from baseline ([8]; at Cmax of 80 mg q.d.) | estimated mean QTcF change from baseline ([8]; at Cmax of 200 mg b.i.d.) | estimated mean QTcF change from baseline ([8]; at the HCRE (highest clinically relevant exposure)) | decrease in drug effect with a Cmin lower by 30% [9] | Effmag (population mean, RSE) ([9]; patients without T315I)
1 | COc1cc(Nc2c(C#N)cnc3cc(OCCCN4CCN(C)CC4)c(OC)cc23)c(Cl)cc1Cl [bosutinib] | 26.3% | 68.4% | 15.8% | – | – | – | – | – | – | – | – | – | – | – | – | – | – | –
2 | O=C(Nc1ccc(OC(F)(F)Cl)cc1)c1cnc(N2CC[C@@H](O)C2)c(-c2ccn[nH]2)c1 [asciminib] | 7.7% | 56.4% | 37.6% | approximately 65% | approximately 30% | 0.4% | 0.1% | no statistically significant relationship | 1.59 fold | 43.3% | about 30% | 60% | 3.35 (90% CI 2.28–4.43) ms | 3.64 (90% CI 2.60–4.68) ms | 5.37 (90% CI 3.97–6.77) ms | 6.77 (90% CI 4.67–8.87) ms | < 2% | 42.1 (3.4%)
